In patent publication US20150087723A1, “MICROBIAL COMPOSITION” (Rohm and Haas Company, priority 2011, published 2015):
“And” between values parts separate entries of the source, which are not always exact repeats. Identical values can stand only once. Like-named read-outs stand apart in the source and are kept apart here.

Legend:
[1] = tested on: Escherichia coli (E. coli—ATCC #10536); experiment: Automated assessment of efficacy in model surfactant base (2.85% sodium cocoyl glycinate + 1.85% sodium lauroamphoacetate, pH 10), 15 seconds exposure, OD450/OD590 readout; type: cell-based; conditions: for MBC: Escherichia coli, ATCC10536, 15 s; for No. of replicates showing growth (out of 4) / Δ OD 450 nm = OD450 (time = 16 hours) - OD450 (time zero), Mean / Δ OD 590 nm OD590 (time = 16 hours) - OD590 (time zero), Mean: model surfactant solution
Procedure: Solutions were prepared such that the concentrations of the surfactant components and test actives were 1.1×x the final desired concentration in order to allow for dilution with the bacterial inoculum in the test. The solutions were manually adjusted to pH 10.0 by drop wise addition of sodium hydroxide solution, as measured with a phi meter at ambient temperature.
Tests were conducted using standard microtiter plate assays using an automated liquid handling system, 270 μl of the surfactant test solution was pipetted into each well of the microtitre plate and 30 μl of the bacterial suspension was then added. After exactly 15 seconds of bacterial exposure, a 30 μl volume of bacterial cells was withdrawn and transferred to 270 μl of D/E quench solution. After 5 minutes in the D/E quench, the optical density (OD) was measured for each plate in turn at two specific wavelengths (450 nm and 590 nm). These provide a dual check of antimicrobial activity, as the OD450 reading is specific for the yellow colour of D/E quench when bacterial growth is observed, whereas OD590 is specific for the initial purple colour of the D/E quench which is retained if no bacterial growth is observed. After the time zero OD measurements, plates were then incubated at 37° C. overnight (16 hours) before repeating the OD measurements. Delta OD values were calculated by subtracting […] the initial value at time zero. Bacterial growth is observed as an increase in OD450 and a decrease in ΔOD590. To identify antibacterially efficacious systems (those preventing appreciable bacterial growth after incubation), the following threshold changes in OD readings have been adopted: if (1), OD450 increases by less than 0.2 absorbance unit on incubation and (2). OD590 decreases by less than 0.35 unit on incubation. Conversely, where OD450 increases by more than 0.2 AU and OD590 decreases by more than 0.35 unit after incubation, corresponding to a colour shift from purple to yellow, the test system allows bacterial growth and is not deemed efficacious. Four replicate measurements in the same plate have been made for each test system. The number of replicate wells showing either bacterial growth or no growth is also readily assessed by eye by following the colour change.
Dose responses for individual components and binary mixtures of actives at a used concentration ratio were generated by sequential dilution of liquors with further surfactant solution to obtain a series of endpoints.
In some selected cases, the combinations were also tested at the weight ratio 1:1.

[2] = tested on: Escherichia coli (E. coli—ATCC #10536); experiment: Synergy test: high resolution MBC microtiter plate assay, phosphate buffer containing 35% dipropylene glycol, 15 seconds contact; type: cell-based; conditions: E. coli 10536; for SI (Synergy Index = Qa/QA + Qb/QB): at Qa and Qb, <1 synergy, 1 additivity, >1 antagonism; for Qa: MBC of the first component (A) acting alone (QA): component alone (Qb = 0)
Text: One measure of synergy is -the industrially accepted method described by Kull, F. C.; Eisman, P. C.; Sylwestrowicz, H. D. and Mayer, R. L., in Applied Microbiology 9:538-541 (1961), using the ratio determined by the formula:
Qa/QA+Qb/QB=Synergy Index (“SI”)
wherein: QA=concentration of compound A (first component) in percent, acting alone, which produced an end point (MBC of Compound A). Qa =concentration of compound A in percent, in the mixture, which produced an end point. QB=concentration of compound B (second component) in percent, acting alone, which produced an end point (MBC of Compound B). Qb=concentration of compound B in percent, in the mixture, which produced an end point.
When the sum of Qa/QA and Qb/QB is greater than one, antagonism is indicated. […] The lower the SI, the greater is the synergy shown by that particular mixture. The minimum biocidal concentration (MBC) of a microbicide is the lowest concentration tested under a specific set of conditions that provides complete kill of the tested microorganisms.
Synergy tests were-conducted using standard microtiter plate assays with, phosphate buffer containing 35% dipropylene glycol (DPG). In this method, a wide range of combinations of chemicals was tested by conducting high resolution MBC assays of Component (A) in the presence of various concentrations of Component (B). High resolution MBCs were determined by adding varying amounts of microbicide to one column of a microtiter plate and doing subsequent ten-fold dilutions using an automated liquid handling system to obtain a series of closely spaced endpoints. The MBC plate was inoculated one column at a time with the test microorganism. An aliquot of the inoculated well was transferred at 15 seconds to a plate containing a neutralizing agent (D/E Neutralizing Broth), mixed and held for 5 minutes before being transferred to a growth plate containing trypticase soy broth (TSB). The TSB plate was incubated at 37° C. and read for the presence/absence of growth at 24 hours. The lowest level tested that provided complete kill (as evidenced by no growth in the microtitre plate) of the test organisms in 15 seconds is the minimum biocidal concentration (MBC).
The synergy of the combinations of the present invention was determined against a bacterium, Escherichia coli (E. coli—ATCC #10536), at a concentration of approximately 1×10^8 bacteria per mL. This microorganism is representative of natural contaminants in many consumer and industrial applications.

[3] = in 2.85% sodium cocoyl glycinate + 1.85% sodium lauroamphoacetate solution at pH 10, E. coli, read-out: MBC (% w/v)

Row | SMILES | MBC [1, 3] | No. of replicates showing growth (out of 4) ([1]; component alone at 0.2% w/v) | Δ OD 450 nm = OD450 (time = 16 hours) - OD450 (time zero), Mean ([1]; component alone at 0.2% w/v) | Δ OD 590 nm OD590 (time = 16 hours) - OD590 (time zero), Mean ([1]; component alone at 0.2% w/v) | SI (Synergy Index = Qa/QA + Qb/QB) [2] | No. of replicates showing growth (out of 4) ([1]; component alone at 0.05% w/v) | Δ OD 450 nm = OD450 (time = 16 hours) - OD450 (time zero), Mean ([1]; component alone at 0.05% w/v) | Δ OD 590 nm OD590 (time = 16 hours) - OD590 (time zero), Mean ([1]; component alone at 0.05% w/v) | No. of replicates showing growth (out of 4) ([1]; component alone at […] w/v) | Δ OD 450 nm = OD450 (time = 16 hours) - OD450 (time zero), Mean ([1]; component alone at […] w/v) | Δ OD 590 nm OD590 (time = 16 hours) - OD590 (time zero), Mean ([1]; component alone at […] w/v) | No. of replicates showing growth (out of 4) ([1]; component alone at 0.125% w/v) | Δ OD 450 nm = OD450 (time = 16 hours) - OD450 (time zero), Mean ([1]; component alone at 0.125% w/v) | Δ OD 590 nm OD590 (time = 16 hours) - OD590 (time zero), Mean ([1]; component alone at 0.125% w/v) | Qa: MBC of the first component (A) acting alone (QA) ([2]; complete kill in 15 seconds) | also measured
1 | CC(C)=CCC/C(C)=C\CO [cis-3,7-dimethyl-2,6-octadien-1-ol] | > 5000 µg/mL | 4 out of 4 | −0.53 | 0.60 | 1.00 | – | – | – | – | – | – | – | – | – | – | No. of replicates showing growth (out of 4) ([1]; component alone at 0.3% w/v): 4 out of 4; Δ OD 450 nm = OD450 (time = 16 hours) - OD450 (time zero), Mean ([1]; component alone at 0.3% w/v): −0.51; Δ OD 590 nm OD590 (time = 16 hours) - OD590 (time zero), Mean ([1]; component alone at 0.3% w/v): 0.61; No. of replicates showing growth (out of 4) ([1]; component alone at 0.4% w/v): 4 out of 4; Δ OD 450 nm = OD450 (time = 16 hours) - OD450 (time zero), Mean ([1]; component alone at 0.4% w/v): −0.48; Δ OD 590 nm OD590 (time = 16 hours) - OD590 (time zero), Mean ([1]; component alone at 0.4% w/v): 0.62; No. of replicates showing growth (out of 4) ([1]; component alone at 0.5% w/v): 2 out of 4; Δ OD 450 nm = OD450 (time = 16 hours) - OD450 (time zero), Mean ([1]; component alone at 0.5% w/v): −0.14; Δ OD 590 nm OD590 (time = 16 hours) - OD590 (time zero), Mean ([1]; component alone at 0.5% w/v): 0.40; Qb: MBC of the second component (B) acting alone (QB) ([2]; component alone (Qa = 0), complete kill in 15 seconds): 0.25 weight % and 0.3 weight % and 0.5 weight %
2 | Cc1cc(O)ccc1C(C)C [4-isopropyl-3-methylphenol] | > 2000 µg/mL | 4 out of 4 | −1.41 | 0.36 | 1.00 | 4 out of 4 | −1.52 | 0.25 | 4 out of 4 | −1.53 | 0.27 | – | – | – | – | No. of replicates showing growth (out of 4) ([1]; component alone at 0.1% w/v): 4 out of 4; Δ OD 450 nm = OD450 (time = 16 hours) - OD450 (time zero), Mean ([1]; component alone at 0.1% w/v): −1.50; Δ OD 590 nm OD590 (time = 16 hours) - OD590 (time zero), Mean ([1]; component alone at 0.1% w/v): 0.24
3 | C/C=C/c1ccccc1O [(E)-2-(prop-1-enyl)phenol] | – | 4 out of 4 | −0.53 | 0.63 | 1.00 | – | – | – | 4 out of 4 | −0.57 | 0.58 | – | – | – | – | MBC ([1]; pH 10, read-out: MBC (% w/v)): > 2000 µg/mL; No. of replicates showing growth (out of 4) ([1]; component alone at 0.1% w/v): 4 out of 4; Δ OD 450 nm = OD450 (time = 16 hours) - OD450 (time zero), Mean ([1]; component alone at 0.1% w/v): −0.60; Δ OD 590 nm OD590 (time = 16 hours) - OD590 (time zero), Mean ([1]; component alone at 0.1% w/v): 0.59
4 | Cc1cc(O)cc(C(C)C)c1 [3-isopropyl-5-methylphenol] | – | – | – | – | 1.00 | – | – | – | – | – | – | – | – | – | – | –
5 | Cc1ccc(C(C)C)cc1O [5-isopropyl-2-methylphenol] | – | 4 out of 4 | −0.52 | 0.62 | 1.00 | – | – | – | 4 out of 4 | – | – | – | – | – | – | MBC ([1]; pH 10, read-out: MBC (% w/v)): > 2000 µg/mL; No. of replicates showing growth (out of 4) ([1]; component alone at 0.1% w/v): 4 out of 4; Δ OD 450 nm = OD450 (time = 16 hours) - OD450 (time zero), Mean ([1]; component alone at 0.1% w/v): −0.52; Δ OD 590 nm OD590 (time = 16 hours) - OD590 (time zero), Mean ([1]; component alone at 0.1% w/v): 0.62
6 | CCCc1cccc(O)c1 [3-n-propylphenol] | > 2000 µg/mL | 4 out of 4 | −0.57 | 0.56 | 1.00 | – | – | – | 4 out of 4 | – | – | 4 out of 4 | −0.59 | 0.57 | 0.5 weight % | –
7 | CCC(C)c1ccc(O)cc1 (stereo not shown) [4-sec-butylphenol] | > 2000 µg/mL | 4 out of 4 | −0.56 | 0.59 | 1.00 | – | – | – | 4 out of 4 | −0.53 | 0.60 | 4 out of 4 | −0.56 | 0.60 | 0.2 weight % | No. of replicates showing growth (out of 4) ([1]; component alone at 0.175% w/v): 4 out of 4; Δ OD 450 nm = OD450 (time = 16 hours) - OD450 (time zero), Mean ([1]; component alone at 0.175% w/v): −0.54; Δ OD 590 nm OD590 (time = 16 hours) - OD590 (time zero), Mean ([1]; component alone at 0.175% w/v): 0.59
8 | CC(C)(C)c1cccc(O)c1 [3-tert-butylphenol] | > 2000 µg/mL | 4 out of 4 | −0.47 | 0.64 | 1.00 | – | – | – | 4 out of 4 | −0.43 | 0.65 | 4 out of 4 | −0.45 | 0.65 | 0.3 weight % | –
9 | CCC(C)c1ccccc1O (stereo not shown) [2-sec-butylphenol] | 1750 µg/mL | 0 out of 4 | −0.01 | 0.09 | 1.00 | 4 out of 4 | −1.50 | 0.30 | – | – | – | – | – | – | 0.2 weight % | Phenol MBC %(w/v) ([1]; phenol alone, model surfactant, E. Coli): 0.175 %(w/v)
10 | CCCCc1ccc(O)cc1 [4-n-butylphenol] | – | – | – | – | 1.00 | – | – | – | – | – | – | – | – | – | 0.2 weight % | –
11 | CCCc1ccccc1O [2-propyphenol] | – | – | – | – | – | 4 out of 4 | −1.43 | 0.46 | – | – | – | – | – | – | – | –
12 | Cc1ccc(C(C)(C)C)c(O)c1 [2-tert-butyl-5-methylphenol] | 2000 µg/mL | – | – | – | – | 4 out of 4 | −1.50 | 0.29 | 4 out of 4 | −1.47 | 0.28 | 4 out of 4 | −1.45 | 0.32 | – | No. of replicates showing growth (out of 4) ([1]; component alone at 0.175% w/v): 4 out of 4; Δ OD 450 nm = OD450 (time = 16 hours) - OD450 (time zero), Mean ([1]; component alone at 0.175% w/v): −1.30; Δ OD 590 nm OD590 (time = 16 hours) - OD590 (time zero), Mean ([1]; component alone at 0.175% w/v): 0.47
